In patent US11826317B2, “Combination therapy with notch and PD-1 or PD-L1 inhibitors” (Eli Lilly and Company, priority 2016, dated 2023):

Columns and labels:
CT26 cells = assay: CT26 colorectal tumor growth in BALB/C mice (in-vivo study); conditions: CT26 s.c. in BALB/C mice
Method: For in-vivo studies 1×10^6 CT26 cells (ATCC® CRL2639™) a colorectal cancer cell line, in 0.2 mL Hank's Balanced Salt Solution (HBSS) is implanted by subcutaneous injection in the hind leg of 6-8 weeks of age BALB/C female mice (Harlan Laboratories). Mice are fed ad libitum on normal chow. Treatment is initiated on day 6 of tumor implantation with oral administration (gavage) of Compound A in 1% Sodium carboxymethyl cellulose (Na-CMC) in 0.25% Tween® 80, or intraperitoneal injection of mouse anti PD-L1 antibody (10F.9G2, BioXcell Catalogue #: BE0101) in phosphate buffered saline (PBS) or intraperitoneal injection of mouse anti PD-1 (CD279) antibody (Clone: RMP1-14, BioXCell #: BP0146-R) in PBS or their respective vehicle in 0.2 mL volume. Compound A is administered at 8 mg/kg on a Monday, Wednesday and Friday schedule for 2 weeks and 10F.9G2 and RMP1-14 are administered at 250 μg/dose/animal on Monday and Thursday schedule for 2 weeks.
Tumor growth and body weight are monitored over time to evaluate efficacy and signs of toxicity. Bidimensional measurements of tumors are performed twice a week and tumor volumes are calculated based on the following formula: (Tumor Volume)=[(L)×(W2)×(Π/6)] where L is mid-axis length and W is mid-axis width. Tumor volume data are transformed to a log scale to equalize variance across time and treatment groups. The log volume data are analyzed with a two-way repeated measures analysis of variance by time and treatment using the MIXED™ procedures in SAS™ software (version 8.2). The correlation model for the repeated measures is spatial power. Test Groups are: • 1: 1% CMC/0.25% Tween® 80/0.05% Antifoam, Monday-Wednesday-Friday ×2, PO/PBS Monday-Thursday ×2, IP • 2: Compound A, 8 mg/kg, Monday-Wednesday-Friday ×2, PO • 3: Compound B (PD-L1), 250 μg/dose, Monday-Thursday ×2, IP • 4: Compound C (PD-1), 250 μg/dose, Monday-Thursday ×2, IP • 5: Compound A, 8 mg/kg, Monday-Wednesday-Friday ×2, PO/Compound B (PD-L1), 250 μg/dose, Monday-Thursday ×2, IP • 6: Compound A, 8 mg/kg, Monday-Wednesday-Friday ×2, PO/Compound C (PD-1), 250 μg/dose, Monday-Thursday ×2, IP
Tumor growth and body weight are monitored over time to evaluate efficacy and signs of toxicity. Bidimensional measurements of tumors are performed twice a week and tumor volumes are calculated based on the following formula: (Tumor Volume)=[(L)×(W2)×(Π/6)] where L is mid-axis length and W is mid-axis width. Tumor volume data are transformed to a log scale to equalize variance across time and treatment groups. The log volume data are analyzed with a two-way repeated measures analysis of variance by time and treatment using the MIXED™ procedures in SAS™ software (version 8.2). The correlation model for the repeated measures is spatial power. Treated groups are compared to the control group at each time point. The MIXED™ procedure is also used separately for each treatment group to calculate adjusted means and standard errors at each time point. Both analyses account for the autocorrelation within each animal and the loss of data that occurs when animals with large tumors are removed from the study early. […] Antitumor activity is expressed as a tumor volume percentage for treatment versus control (% T/C) and is calculated by comparing tumor volume in the treatment group with vehicle treatment group. Percentage T/C and statistical significance value (p value) for the treatment groups is measured essentially as described above and summarized in Table 2. […]

CT-26 tumors [1] = assay: Flow-cytometry of intra-tumoral immune cell populations in excised CT-26 tumors; type: in vivo, mice; conditions: tumors excised day 20, 1 h after last dose of Compound A
Method: (§1) For mechanism analysis CT-26 tumors are excised on day 20, 1 h following the last dose of Compound A. A small piece of approximately 30 mg is cut and stored in RNALater for gene expression analysis. The remainder of the tumor is processed for the flow-cytometry analysis.
Tumors are weighed and then homogenized in 5 ml 4° C. complete media (CM; RPMI-1640/10% fetal bovine serum (FBS)) through 100 μm strainers to produce single-cell suspensions. Cells are centrifuged for 5 minutes at 466×g, 4° C.; the pellets are resuspended in fresh CM (0.5-3 ml, depending on pellet volume), and cells are counted using a Vi-Cell XR (Beckman Coulter). An equal number of total cells per tumor (10×10^6) are transferred to 96-well V-bottom microplates (Fisher Scientific). Cells are centrifuged (700×g, 3 min., 4° C.) and resuspended in 100 μl 1 μg/ml Fc block in CM (anti-CD16/32 (clone 2.4G2); Tonbo Biosciences) for 30 minutes on ice. Cells are centrifuged (700×g, 3 minutes, 4° C.) and resuspended in 100 μl of one of several fluochrome-conjugated surface marker antibody cocktails [anti-CD3 (clone 145-2C11), -Ly-6G (clone 1A8), -CD11c (clone HL3), -CD45 (clone 30-F11) (BD Biosciences), anti-CD8 (clone 53-6.7) (Biolegend), -CD11b (clone M1/70), -CD3 (clone 145-2C11), -F4/80 (clone BM8), -CD4 (clone RM4-5), (eBioscience)] containing a fixable viability dye (eBioscience) and incubated for 30 minutes on ice covered from light. Cells are twice washed with 200 μl CM and centrifuged (700×g, 3 min., 4° C.). Following the second wash, cells are fixed, permeabilized, and intracellularly stained for Ki67 (clone SolA15) (eBioscience) using the Foxp3/Transcription Factor Staining Buffer Set (eBioscience), following the manufacturer's instructions with noted modifications. Briefly, cells are fixed in 100 μl/well for 30 min., followed by 100 μl/well permeabilization buffer with or without intracellular stain (depending on the staining panel used) for 30 min. Cells are twice washed with 200 μl 1× permeabilization buffer and centrifuged (700×g, 3 min., 4° C.), followed by resuspension in PBS with 2% FBS. 1×10^6 events, excluding debris, are captured for each sample using a 10-channel LSR II cytometer (BD Biosciences) and analyzed using FlowJo V.10.0.8 software. Data is represented as percent of tumor cells, with noted exceptions where represented as percent of parent population. Post-hoc t-test following ANOVA is used for statistical analysis between vehicle and treatment groups.

CT-26 tumors [2] = assay: Gene expression analysis (Taqman) of excised CT-26 tumors; type: in vivo, mice; conditions: all genes of Table 4; single-agent groups versus vehicle; result in words
Method: as §1
For RNA isolation from the tumor, approximately 30 mg tissue is cut. RNA is extracted by RNeasy Protocol (version January 2002) using RNeasy 96-well Column Plates (Qiagen, Valencia, Calif.; Cat #74182) and QiaVac 96 vacuum manifold at 15 psi vacuum. […] The total RNA concentration is estimated using Nanodrop ND-1000 spectrophotometer by absorbance at 260 nm (Thermo Scietific). […]
For Taqman procedure, 100 μL of cDNA is diluted with 200 μL RNase/DNase-free water in 96-Well Clear Optical Reaction Plate (Applied Biosystems, Cat #4306737) and transferred to 2 mL RNase/DNase-free tubes (Ambion, Cat #AM12475). […] Samples are dispensed with Tecan Automated Pipetting Workstation (Tecan US Inc., Durham, N.C.; Model: Freedom Evo-100 or Evo-150), and plates are read in ABI Prism 9700HT SDS plate reader with following protocol settings: 50° C. for 2 minutes, 95° C. for 10 minutes, and 40 cycles at 95° C. for 15 seconds and 60° C. for 1 minute. […] All calculations are done in Microsoft Excel spreadsheet template, and % inhibition is calculated from control values. […]

With `C[C@H](NC(=O)CCC(F)(F)F)C(=O)N[C@@H]1C(=O)N(CCO)c2ncccc2-c2ccccc21` [Compound A, 4,4,4-trifluoro-N-[(1S)-2-[[(7S)-5-(2-hydroxyethyl)-6-oxo-7H-pyrido[2,3-d][3]benzazepin-7-yl]amino]-1-methyl-2-oxo-ethyl]butanamide] as the compound, how does the “Tumor volume: Geometric Mean” value (CT26 cells; study day 8) read?
The value was 47.96 mm^3.

And the “Tumor volume: Geometric Mean” value (CT26 cells; study day 10)?
The value was 88.80 mm^3.

What about the “Tumor volume: Geometric Mean” value (CT26 cells; study day 14) of the same compound?
The value was 376.50 mm^3.

And the “Tumor volume: Geometric Mean” value (CT26 cells; study day 17)?
The value was 751.13 mm^3.

What about the “Tumor volume: Geometric Mean” value (CT26 cells; study day 20) of the same compound?
The value was 1227.40 mm^3.

What about the “CD4+/Ki67+ (% of CD4+) Mean % ± SEM” value (CT-26 tumors [1]) of the same compound?
The value was 7.6 ± 0.5%.

And the “CD8+/Ki67+ (% of CD8+) Mean % ± SEM” value (CT-26 tumors [1])?
The value was 23.1 ± 2.0%.

What about the “CD11b + F4/80+ (% of Tumor) Mean % ± SEM” value (CT-26 tumors [1]) of the same compound?
Its value is 0.89 ± 0.15%.

And the “CD11b + Ly-6G + F4/80− (% of Tumor) Mean % ± SEM” value (CT-26 tumors [1])?
Its value is 1.12 ± 0.08%.

What about the “CD11b+ (% of Tumor) Mean % ± SEM” value (CT-26 tumors [1]) of the same compound?
Its value is 2.9 ± 0.2%.

And the “CD11c+ (% of Tumor) Mean % ± SEM” value (CT-26 tumors [1])?
The value was 0.42 ± 0.06%.

What about the “change in the expression of genes examined” value (CT-26 tumors [2]) of the same compound?
Its value is “No significant change”.
